Article PMC5413018, “Neuropeptide S (NPS) variants modify the signaling and risk effects of NPS Receptor 1 (NPSR1) variants in asthma” (PLoS ONE, 2017)
Residue numbers refer to the chain shown, from its start. Residues, ends and D or L forms follow the SMILES beside them.

Key:
[1] = molecular target: T1, NPSR1-Ile(107) (Homo sapiens, UniProt Q6W5P4, N107I); assay: CRE-dependent luciferase activity, NPSR1-Ile(107); type: cell-based; set-up: expressed in transfected cells; host or cells: HEK293; details: HEK293 transiently transfected with NPSR1-Ile(107); NPS 10 pM-100 μM, 3 h; three experiments in triplicates; mean ± SE; Val(6) vs Leu(6) p = 0.004; read-out: pEC50 for CRE-dependent luciferase activity (converted)
T1 sequence (Q6W5P4 1-371 N107I): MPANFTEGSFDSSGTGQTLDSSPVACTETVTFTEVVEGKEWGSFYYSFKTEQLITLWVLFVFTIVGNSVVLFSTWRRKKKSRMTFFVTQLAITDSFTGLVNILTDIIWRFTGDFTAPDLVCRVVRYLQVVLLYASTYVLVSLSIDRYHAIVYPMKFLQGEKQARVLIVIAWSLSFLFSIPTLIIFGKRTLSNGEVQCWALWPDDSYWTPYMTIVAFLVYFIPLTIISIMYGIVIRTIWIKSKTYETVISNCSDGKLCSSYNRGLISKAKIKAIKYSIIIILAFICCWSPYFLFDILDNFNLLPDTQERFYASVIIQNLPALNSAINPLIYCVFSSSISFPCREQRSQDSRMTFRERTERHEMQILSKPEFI
Excerpt: (§1) To compare the bioactivities of the two NPS variants, we measured the dose-responses of NPSR1-Ile(107) and NPSR1-Asn(107) coding variants to either wildtype NPS-Val(6) or alternative NPS-Leu(6) in a luciferase assay dependent on the activation of a cAMP-response element (CRE). This assay was used since elevation of the intracellular cAMP levels activates cAMP response element binding protein (CREB) via […]. Activated CREB binds to CRE and induces the expression of downstream target genes of the cAMP/PKA signaling pathway. Because of the low endogenous expression levels of NPSR1 in majority of the available cell lines, we first used HEK293 cells with forced NPSR1 expression as a model for ligand-receptor interactions. […] Firefly and Renilla luciferase activity was measured 3 h after stimulation with serial dilutions of NPS (10 pM-100 μM). […]
(§2) Human embryonic kidney cells (HEK293) were cultured in MEM+GlutaMAX-1 medium (Gibco/Invitrogen) supplemented with 10% fetal calf serum (FCS) (Biosera), 1% sodium pyruvate, 1% non-essential amino acids and 1% penicillin/streptomycin (Gibco/Invitrogen). […] The HEK293 cell line was chosen for ligand-receptor studies because it is a well-established model for addressing numerous questions in basic biology and is easy to transfect and amenable of stringent quantitative assessment. […]

[2] = molecular target: T2, NPSR1-Asn(107) (Homo sapiens, UniProt Q6W5P4); assay: CRE-dependent luciferase activity, NPSR1-Asn(107); type: cell-based; details: HEK293 transiently transfected with NPSR1-Asn(107); NPS 10 pM-100 μM, 3 h; three experiments in triplicates; mean ± SE; Val(6) vs Leu(6) p = 0.03; read-out: pEC50 for CRE-dependent luciferase activity (converted)
T2 construct: expressed in transfected cells; host or cells: HEK293
T2 sequence (Q6W5P4 1-371): T1 sequence (Q6W5P4 1-371 N107I) with I107N
Excerpt: as §1, §2

Row | Compound | EC50 [1] [nM] | EC50 [2] [nM]
1 | CSCC[C@H](NC(=O)CNC(=O)[C@@H](NC(=O)CNC(=O)[C@H](CC(C)C)NC(=O)CNC(=O)[C@H](CC(N)=O)NC(=O)[C@H](CCCNC(=N)N)NC(=O)[C@H](Cc1ccccc1)NC(=O)[C@@H](N)CO)[C@@H](C)O)C(=O)N[C@@H](CCCCN)C(=O)N[C@@H](CCCCN)C(=O)N[C@H](C(=O)N[C@@H](CO)C(=O)N[C@@H](Cc1ccccc1)C(=O)N[C@@H](CCC(N)=O)C(=O)N[C@@H](CCCNC(=N)N)C(=O)N[C@@H](C)C(=O)N[C@@H](CCCCN)C(=O)N[C@@H](CO)C(=O)O)[C@@H](C)O [NPS-Leu(6)] (H-SFRNGLGTGMKKTSFQRAKS-OH) | 200 | 12600
2 | CSCC[C@H](NC(=O)CNC(=O)[C@@H](NC(=O)CNC(=O)[C@@H](NC(=O)CNC(=O)[C@H](CC(N)=O)NC(=O)[C@H](CCCNC(=N)N)NC(=O)[C@H](Cc1ccccc1)NC(=O)[C@@H](N)CO)C(C)C)[C@@H](C)O)C(=O)N[C@@H](CCCCN)C(=O)N[C@@H](CCCCN)C(=O)N[C@H](C(=O)N[C@@H](CO)C(=O)N[C@@H](Cc1ccccc1)C(=O)N[C@@H](CCC(N)=O)C(=O)N[C@@H](CCCNC(=N)N)C(=O)N[C@@H](C)C(=O)N[C@@H](CCCCN)C(=O)N[C@@H](CO)C(=O)O)[C@@H](C)O [NPS-Val(6)] (H-SFRNGVGTGMKKTSFQRAKS-OH) | 3.98 | 794
